Results reported in ChEMBL document CHEMBL3112480, “γ-Alkylidene-γ-lactones and isobutylpyrrol-2(5H)-ones analogues to rubrolides as inhibitors of biofilm formation by gram-positive and gram-negative bacteria” (Bioorg Med Chem Lett, 2014).
In brackets after ≈: the same amount, converted by molar mass.

What was measured:
[1] = test system: Staphylococcus aureus; test: Antibacterial activity against Staphylococcus aureus ATCC 25923 assessed as effect on planktonic growth at 43.8 ug/ml after 20 hrs relative to control; type: functional
[2] = test system: Streptococcus mutans; test: Antibacterial activity against Streptococcus mutans ATCC 25175 assessed as effect on planktonic growth at 0.17 ug/ml after 20 hrs relative to control; type: functional
[3] = test system: Streptococcus mutans; test: Antibacterial activity against Streptococcus mutans ATCC 25175 assessed as effect on planktonic growth at 1.37 ug/ml after 20 hrs relative to control; type: functional
[4] = test system: Staphylococcus aureus; test: Antibacterial activity against Staphylococcus aureus ATCC 25923 assessed as effect on planktonic growth at 10.9 ug/ml after 20 hrs relative to control; type: functional
[5] = test system: Staphylococcus epidermidis; test: Antibacterial activity against Staphylococcus epidermidis ATCC 35547 assessed as effect on planktonic growth at 43.8 ug/ml after 20 hrs relative to control; type: functional
[6] = test system: Staphylococcus aureus; test: Antibacterial activity against Staphylococcus aureus ATCC 25923 assessed as effect on planktonic growth at 2.73 ug/ml after 20 hrs relative to control; type: functional
[7] = test system: Staphylococcus aureus; test: Antibacterial activity against Staphylococcus aureus ATCC 25923 assessed as effect on planktonic growth at 87.5 ug/ml after 20 hrs relative to control; type: functional
[8] = test system: Staphylococcus epidermidis; test: Antibacterial activity against Staphylococcus epidermidis ATCC 35547 assessed as effect on planktonic growth at 0.17 ug/ml after 20 hrs relative to control; type: functional
[9] = test system: Staphylococcus epidermidis; test: Antibacterial activity against Staphylococcus epidermidis ATCC 35547 assessed as effect on planktonic growth at 0.68 ug/ml after 20 hrs relative to control; type: functional
[10] = test system: Streptococcus mutans; test: Antibacterial activity against Streptococcus mutans ATCC 25175 assessed as effect on planktonic growth at 2.73 ug/ml after 20 hrs relative to control; type: functional
[11] = test system: Staphylococcus epidermidis; test: Antibacterial activity against Staphylococcus epidermidis ATCC 35547 assessed as effect on planktonic growth at 21.9 ug/ml after 20 hrs relative to control; type: functional
[12] = test system: Staphylococcus aureus; test: Antibacterial activity against Staphylococcus aureus ATCC 25923 assessed as effect on planktonic growth at 5.5 ug/ml after 20 hrs relative to control; type: functional
[13] = test system: Staphylococcus aureus; test: Antibacterial activity against Staphylococcus aureus ATCC 25923 assessed as effect on planktonic growth at 0.68 ug/ml after 20 hrs relative to control; type: functional
[14] = test system: Streptococcus mutans; test: Antibacterial activity against Streptococcus mutans ATCC 25175 assessed as effect on planktonic growth at 21.9 ug/ml after 20 hrs relative to control; type: functional
[15] = test system: Streptococcus mutans; test: Antibacterial activity against Streptococcus mutans ATCC 25175 assessed as effect on planktonic growth at 10.9 ug/ml after 20 hrs relative to control; type: functional
[16] = test system: Streptococcus mutans; test: Antibacterial activity against Streptococcus mutans ATCC 25175 assessed as effect on planktonic growth at 0.68 ug/ml after 20 hrs relative to control; type: functional
[17] = test system: Staphylococcus epidermidis; test: Antibacterial activity against Staphylococcus epidermidis ATCC 35547 assessed as effect on planktonic growth at 87.5 ug/ml after 20 hrs relative to control; type: functional
[18] = test system: Pseudomonas aeruginosa; test: Antibacterial activity against Pseudomonas aeruginosa ATCC 27853 assessed as effect on planktonic growth at 0.34 ug/ml after 20 hrs relative to control; type: functional
[19] = test system: Pseudomonas aeruginosa; test: Antibacterial activity against Pseudomonas aeruginosa ATCC 27853 assessed as effect on planktonic growth at 0.17 ug/ml after 20 hrs relative to control; type: functional
[20] = test system: Pseudomonas aeruginosa; test: Antibacterial activity against Pseudomonas aeruginosa ATCC 27853 assessed as effect on planktonic growth at 1.37 ug/ml after 20 hrs relative to control; type: functional
[21] = test system: Staphylococcus aureus; test: Antibacterial activity against Staphylococcus aureus ATCC 25923 assessed as effect on planktonic growth at 21.9 ug/ml after 20 hrs relative to control; type: functional
[22] = test system: Staphylococcus epidermidis; test: Antibacterial activity against Staphylococcus epidermidis ATCC 35547 assessed as effect on planktonic growth at 5.5 ug/ml after 20 hrs relative to control; type: functional
[23] = test system: Staphylococcus aureus; test: Antibacterial activity against Staphylococcus aureus ATCC 25923 assessed as effect on planktonic growth at 0.34 ug/ml after 20 hrs relative to control; type: functional
[24] = test system: Streptococcus mutans; test: Antibacterial activity against Streptococcus mutans ATCC 25175 assessed as effect on planktonic growth at 87.5 ug/ml after 20 hrs relative to control; type: functional
[25] = test system: Streptococcus mutans; test: Antibacterial activity against Streptococcus mutans ATCC 25175 assessed as effect on planktonic growth at 43.8 ug/ml after 20 hrs relative to control; type: functional
[26] = test system: Staphylococcus epidermidis; test: Antibacterial activity against Staphylococcus epidermidis ATCC 35547 assessed as effect on planktonic growth at 1.37 ug/ml after 20 hrs relative to control; type: functional
[27] = test system: Pseudomonas aeruginosa; test: Antibacterial activity against Pseudomonas aeruginosa ATCC 27853 assessed as effect on planktonic growth at 10.9 ug/ml after 20 hrs relative to control; type: functional
[28] = test system: Staphylococcus epidermidis; test: Antibacterial activity against Staphylococcus epidermidis ATCC 35547 assessed as effect on planktonic growth at 10.9 ug/ml after 20 hrs relative to control; type: functional
[29] = test system: Pseudomonas aeruginosa; test: Antibacterial activity against Pseudomonas aeruginosa ATCC 27853 assessed as effect on planktonic growth at 2.73 ug/ml after 20 hrs relative to control; type: functional
[30] = test system: Pseudomonas aeruginosa; test: Antibacterial activity against Pseudomonas aeruginosa ATCC 27853 assessed as effect on planktonic growth at 21.9 ug/ml after 20 hrs relative to control; type: functional
[31] = test system: Streptococcus mutans; test: Antibacterial activity against Streptococcus mutans ATCC 25175 assessed as effect on planktonic growth at 5.5 ug/ml after 20 hrs relative to control; type: functional
[32] = test system: Staphylococcus epidermidis; test: Antibacterial activity against Staphylococcus epidermidis ATCC 35547 assessed as effect on planktonic growth at 0.34 ug/ml after 20 hrs relative to control; type: functional
[33] = test system: Pseudomonas aeruginosa; test: Antibacterial activity against Pseudomonas aeruginosa ATCC 27853 assessed as effect on planktonic growth at 5.5 ug/ml after 20 hrs relative to control; type: functional
[34] = test system: Streptococcus mutans; test: Antibacterial activity against Streptococcus mutans ATCC 25175 assessed as effect on planktonic growth at 0.34 ug/ml after 20 hrs relative to control; type: functional
[35] = test system: Staphylococcus aureus; test: Antibacterial activity against Staphylococcus aureus ATCC 25923 assessed as effect on planktonic growth at 1.37 ug/ml after 20 hrs relative to control; type: functional
[36] = test system: Pseudomonas aeruginosa; test: Antibacterial activity against Pseudomonas aeruginosa ATCC 27853 assessed as inhibition of biofilm formation after 20 hrs by crystal-violet staining method; type: functional, organism-based
[37] = test system: Pseudomonas aeruginosa; test: Antibacterial activity against Pseudomonas aeruginosa ATCC 27853 assessed as effect on planktonic growth at 87.5 ug/ml after 20 hrs relative to control; type: functional
[38] = test system: Pseudomonas aeruginosa; test: Antibacterial activity against Pseudomonas aeruginosa ATCC 27853 assessed as effect on planktonic growth at 0.68 ug/ml after 20 hrs relative to control; type: functional
[39] = test system: Staphylococcus aureus; test: Antibacterial activity against Staphylococcus aureus ATCC 25923 assessed as effect on planktonic growth at 0.17 ug/ml after 20 hrs relative to control; type: functional
[40] = test system: Staphylococcus epidermidis; test: Antibacterial activity against Staphylococcus epidermidis ATCC 35547 assessed as inhibition of biofilm formation after 20 hrs by crystal-violet staining method; type: functional, organism-based; details: for IC50: ATCC 35547, 20 h
[41] = test system: Staphylococcus epidermidis; test: Antibacterial activity against Staphylococcus epidermidis ATCC 35547 assessed as effect on planktonic growth at 2.73 ug/ml after 20 hrs relative to control; type: functional
[42] = test system: Pseudomonas aeruginosa; test: Antibacterial activity against Pseudomonas aeruginosa ATCC 27853 assessed as effect on planktonic growth at 43.8 ug/ml after 20 hrs relative to control; type: functional

Compound: COc1ccc(C)cc1C1=C(Br)C(=O)N(CC(C)C)C1(O)Cc1cccc(Cl)c1 (configuration not stated)
- Activity [1]: -5%
- Activity [2]: 3%
- Activity [3]: -4.8%
- Activity [4]: 4.3%
- Activity [5]: -28.5%
- Activity [6]: 12.8%
- Activity [7]: -12.1%
- Activity [8]: 3.5%
- Activity [9]: 1.2%
- Activity [10]: -2.9%
- Activity [11]: -7.3%
- Activity [12]: 5.4%
- Activity [13]: 10.8%
- Activity [14]: -12.5%
- Activity [15]: -7.6%
- Activity [16]: 1.1%
- Activity [17]: -7.8%
- Activity [18]: -1.3%
- Activity [19]: -1.6%
- Activity [20]: -3.4%
- Activity [21]: 3.4%
- Activity [22]: 12%
- Activity [23]: 11.4%
- Activity [24]: -31.2%
- Activity [25]: -21%
- Activity [26]: 0.9%
- Activity [27]: -9.6%
- Activity [28]: -17.2%
- Activity [29]: -7%
- Activity [30]: -7.9%
- Activity [31]: -11%
- Activity [32]: 2.4%
- Activity [33]: -8.6%
- Activity [34]: 2.4%
- Activity [35]: 9.7%
- inhibition [36]: Dose-dependent effect
- Activity [37]: -11.6%
- Activity [38]: -2.6%
- Activity [39]: 6.7%
- inhibition [40]: Dose-dependent effect
- IC50 [40]: > 87.5 µg/mL
- Activity [41]: 1.9%
- Activity [42]: -10.6%

Compound: COc1ccc(Br)cc1C1=C(Br)C(=O)N(CC(C)C)/C1=C/c1cccc(Cl)c1
- Activity [1]: -5.2%
- Activity [2]: 6%
- Activity [3]: 15.3%
- Activity [4]: -11.9%
- Activity [5]: 56.1%
- Activity [6]: -14%
- Activity [7]: 12.8%
- Activity [8]: 2.1%
- Activity [9]: 4.8%
- Activity [10]: 12.6%
- Activity [11]: 27.7%
- Activity [12]: -16%
- Activity [13]: -19.6%
- Activity [14]: -7.5%
- Activity [15]: 8.3%
- Activity [16]: -6.5%
- Activity [17]: 70.2%
- Activity [18]: -3.3%
- Activity [19]: 1.8%
- Activity [20]: 5%
- Activity [21]: -13.1%
- Activity [22]: 21.1%
- Activity [23]: -17.1%
- Activity [24]: -7.3%
- Activity [25]: 2.5%
- Activity [26]: 1%
- Activity [27]: -7%
- Activity [28]: 10.8%
- Activity [29]: 4.7%
- Activity [30]: -4.5%
- Activity [31]: 2.8%
- Activity [32]: 4.9%
- Activity [33]: -4%
- Activity [34]: 7%
- Activity [35]: -17.8%
- inhibition [36]: Dose-dependent effect
- IC50 ([36]; ATCC 27853, 20 h): > 87.5 µg/mL
- Activity [37]: 15.5%
- Activity [38]: 3.4%
- Activity [39]: -18.7%
- inhibition [40]: Dose-dependent effect
- IC50 [40]: 46.7 µg/mL (≈ 88.8 µM)
- Activity [41]: 11.4%
- Activity [42]: -3.2%
